Measured values from US20030186943A1, “Substituted gamma-phenyl-delta-lactams and uses related thereto” (Inflazyme Pharmaceuticals Ltd., priority 1998, published 2003).
Like-named read-outs stand apart in the source and are kept apart here.

Experiments:
[1] = test system: IL-10 production in concanavalin A stimulated primary human CD4+ T-cells; test: IL-10 production (Th2 profile) in concanavalin A stimulated primary human CD4+ T-cells; type: cell-based; settings: T-cell, 10 μg/mL Concanavalin A, 48 hours, X marks this range
Excerpt: The assay on the primary human T-cells involves their activation by concanavalin A (conA); (Sigma, Catalogue No. C 5275), followed by ELISA detection for cytokines for either profile. In the case of Th1-profiles, IL-2 and INF-γ are used as benchmarks while IL-10 is the indicator for a Th2-profile. Biologically, these indicators are useful in that IL-2 is the major T-cell mitogen while IL-10 represents a powerful yet selective immunosuppressive agent.
Approximately 60 cc of whole human blood was collected into ACD anti-coagulant vacutainer tubes. 15 mL Ficoll Paque 1077 was aliquoted into 6 sterile 50 mL conical tubes. 10 mL of blood was slowly layered on top of the Ficoll Paque by holding the tube upright and resting the pipette tip at the inside edge of the tube and allowing the blood to slowly run down the side of the tube. Tubes were spun at 1700 rpm for 30 minutes at room temperature. The plasma layer above the leukocyte band was aspirated off and a pasteur pipette was used to lift off the leukocyte band and transfer it to a sterile 50 mL conical tube. Cells from each leukocyte gradiant tube were transferred to a separate 50 mL conical tube. Sterile PBS pH 7.4 was added to each 50 mL conical tube containing cells from leukocyte band to a volume of 50 mL. Tubes were spun at 1100 rpm for 10 minutes. Supernatant was aspirated off and the cells were resuspended in 50 mL PBS pH 7.4. Tubes were re-centrifuged at 1100 rpm for 10 minutes. Supernatant was aspirated off and the cells were resuspended in appropriate medium at a density of 5×10^7 cells/mL or 2×10^6 cells/mL.
CD 4+T-cell Preparation: Cells from Leukocyte preparation were resuspended in sterile PBS pH 7.4 supplemented with 2-6% Fetal Bovine Serum (FBS) at a density of 5×10^7 cells/mL. Cells were then ready for isolation.
100 μL of antibody cocktail (Stem Cell Technologies, Catalogue No. 14062) was added for each mL of cells and mixed well. Cells+Ab cocktail was incubated on ice for 30 minutes. After 30 minute incubation, 60 μL of magnetic colloid was added for each mL of cells, and mixed well. Cells+Ab cocktail+magnetic colloid were incubated on ice for 30 minutes. After a final 30 minute incubation cells were ready for magnetic cell separation.
Sample was loaded into the top of a column. The stopcock was turned to allow the flow of media down through the column, and the media was collected into a collection tube. PBS supplemented with 2-6% FBS was added to the column until three column volumes had been collected (not including the volume of the start sample). Cells were washed, counted, and resuspended in RPMI 1640 with 10% FBS+2 mM L-glutamine at a density of 1×10^6 cells/mL.
CD4+ T-cells were isolated as described above. Cells were suspended in RPMI 1640 media (Stem Cell Technologies Inc.; Catalogue No. 36750) with 10% FBS+2 mM L-glutamine at a density of 1×10^6 cells/mL. Cells were maintained on ice as test compounds were prepared. Test compounds were prepared in a sterile 96-well assay plate at 50×the final desired test concentration, all wells contained an equal amount of dimethylsulfoxide vehicle. 500 μL of CD4^+ T-cells were added to each well of 24-well assay plate. 10 μL of each test compound working solution was added to the appropriate wells; two wells were left as stimulated and non-stimulated controls. 10 μL of concanavalin A (50×the final concentration) at 10 μg/mL was added to each well with the exception of the non-stimulated control wells. Cells were incubated at 37° C. for 48 hours. Conditioned media is then assessed by ELISA for the quantity of IL-2, […], TNFα and IL-10 present.
Tables 5A, 5B and 5C represent a synopsis of data across individuals with respects to the potency of compounds of the invention in their ability to inhibit cytokines that are likely to promote or depress a Th1 or Th2 response. […]

[2] = test system: cAMP response element luciferase activity in human U937 monocytic cells; test: Potentiation of forskolin-induced CRE-luciferase activity in U937 cells; type: cell-based; settings: U-937, U937 cells co-incubated with 10 μM forskolin, 4 hours, X marks this range
Method in brief: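 U937 cells electroporated with PCRE-luc reporter, recovered 16-18 h, then exposed to compound or vehicle with or without 10 μM forskolin for 4 h at 37 °C. Cell lysates read for luciferase luminescence.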

[3] = molecular target: T1, cAMP phosphodiesterase 3 from human platelets (Homo sapiens, UniProt Q14432); test: Inhibition of cAMP phosphodiesterase 3 from human platelets; type: biochemical; settings: for inhibition at 100 µM: PDE3
T1 construct: from tissue; host or cells: human platelets, cytoplasmic extract
T1 sequence (Q14432 whole entry): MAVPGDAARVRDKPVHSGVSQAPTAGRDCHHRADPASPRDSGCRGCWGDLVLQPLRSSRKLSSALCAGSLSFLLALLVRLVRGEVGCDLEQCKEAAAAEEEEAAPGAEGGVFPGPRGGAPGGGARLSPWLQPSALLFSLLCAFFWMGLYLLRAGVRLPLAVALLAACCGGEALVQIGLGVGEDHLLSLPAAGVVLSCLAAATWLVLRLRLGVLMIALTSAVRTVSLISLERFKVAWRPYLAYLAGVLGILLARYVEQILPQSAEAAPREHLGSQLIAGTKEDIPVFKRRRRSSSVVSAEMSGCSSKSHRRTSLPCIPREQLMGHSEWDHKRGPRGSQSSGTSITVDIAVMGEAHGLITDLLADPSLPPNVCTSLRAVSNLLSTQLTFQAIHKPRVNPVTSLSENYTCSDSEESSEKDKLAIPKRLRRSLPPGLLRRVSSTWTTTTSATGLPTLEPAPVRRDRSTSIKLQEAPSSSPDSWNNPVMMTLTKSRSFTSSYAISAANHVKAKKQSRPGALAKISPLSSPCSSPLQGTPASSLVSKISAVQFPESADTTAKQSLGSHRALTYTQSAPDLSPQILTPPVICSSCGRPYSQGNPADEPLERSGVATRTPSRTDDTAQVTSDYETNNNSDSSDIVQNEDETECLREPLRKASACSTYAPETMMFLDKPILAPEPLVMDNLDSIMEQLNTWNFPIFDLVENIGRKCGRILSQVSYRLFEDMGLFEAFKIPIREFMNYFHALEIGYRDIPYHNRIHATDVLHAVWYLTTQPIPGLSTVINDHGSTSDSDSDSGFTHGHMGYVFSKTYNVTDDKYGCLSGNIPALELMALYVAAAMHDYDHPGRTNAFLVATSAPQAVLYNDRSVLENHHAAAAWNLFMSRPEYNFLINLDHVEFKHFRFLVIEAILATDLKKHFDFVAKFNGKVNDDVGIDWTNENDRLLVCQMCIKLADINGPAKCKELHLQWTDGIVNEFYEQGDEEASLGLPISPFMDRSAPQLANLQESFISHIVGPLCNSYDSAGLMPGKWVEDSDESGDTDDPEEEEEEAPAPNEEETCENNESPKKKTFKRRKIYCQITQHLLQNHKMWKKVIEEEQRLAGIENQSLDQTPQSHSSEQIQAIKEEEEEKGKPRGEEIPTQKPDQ
Method in brief: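 Partially purified human platelet extract used as PDE3 source with cAMP as substrate, so cGMP-preferring PDE2 and PDE5 present in platelets go undetected. IBMX served as positive control.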

[4] = read-out: IL-10 IC50 RANGE (μM) 2.0-20
[5] = read-out: EC50 range (μM) 0.1-1
[6] = PDE3, platelet cell extract, X marks this range, read-out: IC50 range (μM) 10-100
[7] = read-out: IL-10 IC50 RANGE (μM) 0.2-2.0
[8] = PDE3, platelet cell extract, X marks this range, read-out: IC50 range (μM) 1-10
[9] = read-out: IL-10 IC50 RANGE (μM) 0.02-0.2

For `COc1cc(CC2C[C@@H](c3ccc(OC)c(OC4CCCC4)c3)COC2=O)ccc1O` (stereo partly drawn) [Compound 43], the IC50 [1, 4] was 2 to 20 µM, the EC50 [2, 5] was 0.1 to 1 µM and the IC50 [3, 6] was 10 to 100 µM. For the same compound, the inhibition at 100 µM ([3]; read-out: % inhibition by 100 μM test compound 75-100, X marks this range) was 75 to 100%.

With `COc1ccc([C@H]2CNC(=O)C(Cc3ccc(OCc4ccccc4)c(OC)c3)C2)cc1OC` (stereo partly drawn) [Compound 54] the IC50 [1, 7] was 0.2 to 2 µM, the EC50 ([2]; read-out: EC50 range (μM) 1-25) was 1 to 25 µM and the IC50 [3, 8] was 1 to 10 µM.

For `COc1cc(CC2C[C@@H](c3ccc(OC)c(OC4CCCC4)c3)CNC2=O)ccc1O` (stereo partly drawn) [Compound 62], the IC50 [1, 9] was 0.02 to 0.2 µM, the EC50 ([2]; read-out: EC50 range (μM) 1-25) was 1 to 25 µM and the IC50 [3, 8] was 1 to 10 µM.

For `COc1ccc(C2CNC(=O)C2)cc1OC1CCCC1` (stereo not drawn) [Rolipram, reference compound], the IC50 [1, 9] was 0.02 to 0.2 µM and the “effect in PDE3 assay” value ([3]; platelet cell extract, cAMP as substrate) was “without effect”.

Compound `COc1cc(C[C@@H]2CC(c3ccc(OC)c(OC)c3)COC2=O)ccc1O` (mixture of isomers) [Compound 12] has an EC50 ([2]; read-out: EC50 range (μM) 1-25) of 1 to 25 µM, an IC50 ([3]; human platelets, read-out: IC50 PDE 3) of 45 µM and an inhibition at 100 µM ([3]; read-out: % inhibition by 100 μM test compound 50-75, X marks this range) of 50 to 75%.

`COc1cc(CC2C[C@@H](c3ccc(OC)c(OC)c3)CNC2=O)ccc1O` (stereo partly drawn) [Compound 55] gave an IC50 [1, 7] of 0.2 to 2 µM, an EC50 ([2]; read-out: EC50 range (μM) 1-25) of 1 to 25 µM and an IC50 [3, 8] of 1 to 10 µM.

For `COc1cc(C[C@@H]2C[C@@H](c3ccc(OC)c(OC)c3)COC2=O)ccc1O` [Compound 30], the IC50 [1, 4] was 2 to 20 µM, the EC50 ([2]; read-out: EC50 range (μM) 1-25) was 1 to 25 µM and the IC50 [3, 6] was 10 to 100 µM.

With `COc1ccc([C@@H]2CCC(=O)OC2)cc1OC1CCCC1` [Compound 41] the EC50 [2, 5] was 0.1 to 1 µM, the IC50 ([3]; PDE3, platelet cell extract, X marks this range) was > 100 µM and the inhibition at 100 µM ([3]; read-out: % inhibition by 100 μM test compound 25-50, X marks this range) was 25 to 50%.
